From ChEMBL document CHEMBL4477259, “Discovery and structure-activity relationships of a novel isothiazolone class of bacterial type II topoisomerase inhibitors” (Bioorg Med Chem Lett, 2016)
Converted amounts (≈) assume the structure as drawn.

Experiments:
Acinetobacter baumannii = assay: Antibacterial activity against Acinetobacter baumannii NCTC 13420; type: functional
Klebsiella pneumoniae = assay: Antibacterial activity against Klebsiella pneumoniae ATCC 700603; type: functional
Pseudomonas aeruginosa = assay: Antibacterial activity against Pseudomonas aeruginosa ATCC 27853; type: functional
Staphylococcus aureus = assay: Antibacterial activity against Staphylococcus aureus ATCC 29213; type: functional
Escherichia coli [1] = assay: Antibacterial activity against Escherichia coli W4573; type: functional
Escherichia coli [2] = assay: Antibacterial activity against Escherichia coli N43; type: functional
HepG2 = assay: Cytotoxicity against human HepG2 cells after 24 hrs by cell titre-glo assay; type: cell-based; settings: HepG2, 24 h
[3] = n-octanol/phosphate buffer partition coefficient, log D of compound at pH 7.4 by shake-flask assay; type: physicochemical
hERG (KCNH2) = hERG (KCNH2) (Homo sapiens, UniProt Q12809); assay: Inhibition of human ERG channel at 100 uM by automated patch clamp assay
Chain of hERG (KCNH2) (Q12809 whole entry): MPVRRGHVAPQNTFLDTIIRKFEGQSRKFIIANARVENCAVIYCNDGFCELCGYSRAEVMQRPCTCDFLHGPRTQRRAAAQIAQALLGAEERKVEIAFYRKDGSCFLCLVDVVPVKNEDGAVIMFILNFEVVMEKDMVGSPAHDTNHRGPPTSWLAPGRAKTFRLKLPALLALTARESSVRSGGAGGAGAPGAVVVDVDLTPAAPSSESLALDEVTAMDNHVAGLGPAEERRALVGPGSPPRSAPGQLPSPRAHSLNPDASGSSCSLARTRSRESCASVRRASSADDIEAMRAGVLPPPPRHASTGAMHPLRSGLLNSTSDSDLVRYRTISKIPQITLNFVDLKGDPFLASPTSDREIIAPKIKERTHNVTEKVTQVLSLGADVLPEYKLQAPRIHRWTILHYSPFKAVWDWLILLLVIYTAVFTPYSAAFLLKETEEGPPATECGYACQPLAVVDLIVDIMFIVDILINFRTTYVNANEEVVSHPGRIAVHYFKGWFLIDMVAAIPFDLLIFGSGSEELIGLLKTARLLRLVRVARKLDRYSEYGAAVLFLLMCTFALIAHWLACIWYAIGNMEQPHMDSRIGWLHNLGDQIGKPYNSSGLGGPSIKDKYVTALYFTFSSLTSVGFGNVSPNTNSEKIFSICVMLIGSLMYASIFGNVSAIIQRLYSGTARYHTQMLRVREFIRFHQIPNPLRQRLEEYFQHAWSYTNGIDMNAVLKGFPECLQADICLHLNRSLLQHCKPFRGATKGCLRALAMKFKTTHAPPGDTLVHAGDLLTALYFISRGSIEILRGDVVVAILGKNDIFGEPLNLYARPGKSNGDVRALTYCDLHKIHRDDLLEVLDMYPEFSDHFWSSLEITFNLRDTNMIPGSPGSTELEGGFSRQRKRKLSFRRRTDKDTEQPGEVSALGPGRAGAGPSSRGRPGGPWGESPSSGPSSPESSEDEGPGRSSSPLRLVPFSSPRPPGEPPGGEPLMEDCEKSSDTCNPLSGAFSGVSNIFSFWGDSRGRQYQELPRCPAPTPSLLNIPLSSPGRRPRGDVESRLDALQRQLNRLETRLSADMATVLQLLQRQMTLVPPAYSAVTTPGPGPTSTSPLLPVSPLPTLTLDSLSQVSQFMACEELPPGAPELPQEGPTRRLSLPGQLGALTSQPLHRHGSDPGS

Escherichia coli [4] = assay: Antibacterial activity against Escherichia coli LM705 harboring GyrA S83L/D87N double mutant/ParC S80I mutant/delta marR/delta acrR double mutant; type: functional
Escherichia coli [5] = assay: Antibacterial activity against Escherichia coli CH440 harboring GyrA S83L/D87N double mutant/ParC S80I E84V double mutant/aac(6')-lb-cr; type: functional
Escherichia coli [6] = assay: Antibacterial activity against Escherichia coli CH460 harboring GyrA S83L/D87N double mutant/ParC S80I E84V double mutant/qepA; type: functional
Escherichia coli [7] = assay: Antibacterial activity against Escherichia coli CH418 harboring GyrA S83L/D87N double mutant/ParC S80I E84G double mutant/qnrA; type: functional
Escherichia coli [8] = assay: Antibacterial activity against wild type Escherichia coli LM179; type: functional
Escherichia coli [9] = assay: Antibacterial activity against Escherichia coli LM625 harboring GyrA S83L/D87N double mutant; type: functional
Escherichia coli [10] = assay: Antibacterial activity against Escherichia coli LM367 harboring delta marR/delta acrR double mutant; type: functional
Escherichia coli [11] = assay: Antibacterial activity against Escherichia coli LM693 harboring GyrA S83L/D87N double mutant/ParC S80I mutant; type: functional
Escherichia coli [12] = assay: Antibacterial activity against Escherichia coli CH448 harboring GyrA S83L mutant/qnrS; type: functional
Escherichia coli [13] = assay: Selectivity ratio of MIC for Escherichia coli LM625 harboring GyrA S83L/D87N double mutant to MIC for wild type Escherichia coli LM179; type: functional
Escherichia coli [14] = assay: Selectivity ratio of MIC for Escherichia coli LM367 harboring delta marR/delta acrR double mutant to MIC for wild type Escherichia coli LM179; type: functional
Escherichia coli [15] = assay: Selectivity ratio of MIC for Escherichia coli LM693 harboring GyrA S83L/D87N double mutant/ParC S80I mutant to MIC for wild type Escherichia coli LM179; type: functional
Escherichia coli [16] = assay: Selectivity ratio of MIC for Escherichia coli LM705 harboring GyrA S83L/D87N double mutant/ParC S80I mutant/delta marR/delta acrR double mutant to MIC for wild type Escherichia coli LM179; type: functional
Escherichia coli [17] = assay: Selectivity ratio of MIC for Escherichia coli CH440 harboring GyrA S83L/D87N double mutant/ParC S80I E84V double mutant/aac(6')-lb-cr to MIC for wild type Escherichia coli LM179; type: functional
Escherichia coli [18] = assay: Selectivity ratio of MIC for Escherichia coli CH460 harboring GyrA S83L/D87N double mutant/ParC S80I E84V double mutant/qepA to MIC for wild type Escherichia coli LM179; type: functional
Escherichia coli [19] = assay: Selectivity ratio of MIC for Escherichia coli CH418 harboring GyrA S83L/D87N double mutant/ParC S80I E84G double mutant/qnrA to MIC for wild type Escherichia coli LM179; type: functional
Escherichia coli [20] = assay: Selectivity ratio of MIC for Escherichia coli CH448 harboring GyrA S83L mutant/qnrS to MIC for wild type Escherichia coli LM179; type: functional

SMILES | MIC (Acinetobacter baumannii) [µg/mL] | MIC (Klebsiella pneumoniae) [µg/mL] | MIC (Pseudomonas aeruginosa) [µg/mL] | MIC (Staphylococcus aureus) [µg/mL] | MIC (Escherichia coli [1]) [µg/mL] | MIC (Escherichia coli [2]) [µg/mL] | IC50 (HepG2) [µg/mL] | further results
CCc1c(-c2ccc(N3CCC(NC)C3)cc2)[nH]c(=O)c2c(=O)[nH]sc12 (stereo not given) | 16 (≈ 43.2 µM) | 2 (≈ 5.4 µM) | 0.06 (≈ 0.162 µM) | 0.12 (≈ 0.324 µM) | 0.008 (≈ 0.0216 µM) | 0.001 (≈ 0.0027 µM) | > 128 | logD [3]: 1.2; inhibition at 100 µM (hERG (KCNH2)): 34%
O=C(O)c1cn(C2CC2)c2cc(N3CCNCC3)c(F)cc2c1=O [CIPROFLOXACIN] |  | 0.25 (≈ 0.754 µM) | 1 (≈ 3.02 µM) | 0.25 (≈ 0.754 µM) |  |  | > 128 | MIC (Escherichia coli [4]): 64 µg/mL (≈ 193 µM); MIC (Escherichia coli [5]): > 64 µg/mL; MIC (Escherichia coli [6]): > 64 µg/mL; MIC (Escherichia coli [7]): 64 µg/mL (≈ 193 µM)
CCc1c(-c2ccc(N3C[C@@H]4CCCN[C@@H]4C3)cc2)[nH]c(=O)c2c(=O)[nH]sc12 | 8 (≈ 20.2 µM) | 4 (≈ 10.1 µM) | 1 (≈ 2.52 µM) | 1 (≈ 2.52 µM) | 0.5 (≈ 1.26 µM) | 0.008 (≈ 0.0202 µM) |  | 
CCc1c(-c2ccc(N3CC[C@H](O)C3)cc2)[nH]c(=O)c2c(=O)[nH]sc12 | 32 (≈ 89.5 µM) | 4 (≈ 11.2 µM) | 0.5 (≈ 1.4 µM) | 0.12 (≈ 0.336 µM) | 0.25 (≈ 0.699 µM) | 0.03 (≈ 0.0839 µM) | > 16 | logD [3]: 1.5; inhibition at 100 µM (hERG (KCNH2)): 22%
CCc1c(-c2ccc3c(cnn3C)c2)[nH]c(=O)c2c(=O)[nH]sc12 | 2 (≈ 6.13 µM) | 16 (≈ 49 µM) | 4 (≈ 12.3 µM) | 0.12 (≈ 0.368 µM) | 0.5 (≈ 1.53 µM) | 0.004 (≈ 0.0123 µM) |  | MIC (Escherichia coli [8]): 0.5 µg/mL (≈ 1.53 µM); MIC (Escherichia coli [9]): 8 µg/mL (≈ 24.5 µM); MIC (Escherichia coli [10]): 4 µg/mL (≈ 12.3 µM); MIC (Escherichia coli [11]): 16 µg/mL (≈ 49 µM); MIC (Escherichia coli [4]): > 64 µg/mL; MIC (Escherichia coli [5]): 16 µg/mL (≈ 49 µM); MIC (Escherichia coli [6]): 16 µg/mL (≈ 49 µM); MIC (Escherichia coli [7]): 16 µg/mL (≈ 49 µM); MIC (Escherichia coli [12]): 16 µg/mL (≈ 49 µM); Selectivity ratio (Escherichia coli [13]): 16; Selectivity ratio (Escherichia coli [14]): 8; Selectivity ratio (Escherichia coli [15]): 32; Selectivity ratio (Escherichia coli [16]): >128; Selectivity ratio (Escherichia coli [17]): 32; Selectivity ratio (Escherichia coli [18]): 32; Selectivity ratio (Escherichia coli [19]): 32; Selectivity ratio (Escherichia coli [20]): 32

Now from value to compound, other results behind:

MIC (Acinetobacter baumannii) [µg/mL] | MIC (Klebsiella pneumoniae) [µg/mL] | MIC (Pseudomonas aeruginosa) [µg/mL] | MIC (Staphylococcus aureus) [µg/mL] | MIC (Escherichia coli [1]) [µg/mL] | MIC (Escherichia coli [2]) [µg/mL] | SMILES | IC50 (HepG2) [µg/mL] | further results
16 (≈ 52.2 µM) | 128 (≈ 417 µM) | > 128 | 8 (≈ 26.1 µM) | 16 (≈ 52.2 µM) | 0.25 (≈ 0.815 µM) | CCc1c(-c2ccc(Cl)cc2)[nH]c(=O)c2c(=O)[nH]sc12 |  | 
1 (≈ 2.6 µM) | 4 (≈ 10.4 µM) | 1 (≈ 2.6 µM) | 0.5 (≈ 1.3 µM) | 0.015 (≈ 0.039 µM) | 0.001 (≈ 0.0026 µM) | CCc1c(-c2ccc(N3CC[C@H](N(C)C)C3)cc2)[nH]c(=O)c2c(=O)[nH]sc12 |  | 
> 64 | > 64 | > 64 | 64 (≈ 166 µM) | > 64 | 8 (≈ 20.8 µM) | CCc1c(-c2cccc(N3CCC(CNC)C3)c2)[nH]c(=O)c2c(=O)[nH]sc12 (stereo not given) |  | 
> 64 | > 64 | 64 (≈ 161 µM) | 16 (≈ 40.1 µM) | 16 (≈ 40.1 µM) | 0.5 (≈ 1.25 µM) | CCc1c(-c2ccc(N3CCC(N(C)C)CC3)cc2)[nH]c(=O)c2c(=O)[nH]sc12 |  | 
> 64 | > 64 | 4 (≈ 10.6 µM) | 0.12 (≈ 0.318 µM) | 0.5 (≈ 1.32 µM) | 0.12 (≈ 0.318 µM) | CCc1c(-c2ccc(N3CCC(F)(F)C3)cc2)[nH]c(=O)c2c(=O)[nH]sc12 |  | 
